Test results from article PMC7920811 (Neoplasia (New York, N.Y.), 2021).

Target: STAT3 (Homo sapiens, UniProt P40763)
Test: label-free microscale thermophoresis
Format: binding

STAT3, sequence (P40763 2-770): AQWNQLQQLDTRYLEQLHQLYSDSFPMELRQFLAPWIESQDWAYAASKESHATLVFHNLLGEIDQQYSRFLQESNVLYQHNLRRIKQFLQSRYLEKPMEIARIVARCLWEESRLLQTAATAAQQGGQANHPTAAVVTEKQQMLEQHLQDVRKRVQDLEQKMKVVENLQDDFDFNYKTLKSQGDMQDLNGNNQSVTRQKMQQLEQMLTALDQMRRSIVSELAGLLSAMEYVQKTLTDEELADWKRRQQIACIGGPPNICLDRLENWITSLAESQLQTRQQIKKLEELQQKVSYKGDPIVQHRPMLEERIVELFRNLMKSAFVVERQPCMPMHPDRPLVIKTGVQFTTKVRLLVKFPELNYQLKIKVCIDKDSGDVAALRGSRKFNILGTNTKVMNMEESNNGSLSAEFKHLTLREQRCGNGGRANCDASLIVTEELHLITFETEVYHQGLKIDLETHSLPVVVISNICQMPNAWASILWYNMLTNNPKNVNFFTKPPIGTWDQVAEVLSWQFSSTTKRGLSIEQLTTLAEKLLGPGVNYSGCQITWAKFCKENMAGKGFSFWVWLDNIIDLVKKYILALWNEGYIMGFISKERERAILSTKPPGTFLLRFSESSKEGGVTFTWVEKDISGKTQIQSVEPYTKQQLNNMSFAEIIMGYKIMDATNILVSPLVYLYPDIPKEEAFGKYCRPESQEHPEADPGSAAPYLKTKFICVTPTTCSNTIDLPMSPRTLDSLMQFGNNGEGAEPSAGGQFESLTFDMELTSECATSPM

## CC(=O)Nc1ccc(O)cc1 [AAP, acetaminophen]
  Kd: 0.6 ± 0.4 µM
